Source: US20160137630A1, “INDUCTION OF GATA2 BY HDAC1 AND HDAC2 INHIBITORS” (ACETYLON PHARMACEUTICALS, INC., priority 2014, published 2016)
“Also recorded” adds a separate entry of the source. Where two headings read alike, the source gives them in different places.

How the values were obtained:
MV4-11 cells = assay: GATA2 expression in MV4-11 AML cell line; format: cell-based; details: 1 uM single agent, 48 h and 72 h
Description: FIG. 24. […] (A-B) MV4-11 cells were plated at 2×10^5 cells/ml at indicated doses for 48 h and 72 h. RNA was prepared and analyzed for GATA2 and GAPDH as internal control.

HDAC1 = HDAC1 (Homo sapiens, UniProt Q13547); assay: in vitro biochemical HDAC inhibition assay; details: read-out: IC50 HDAC1
HDAC2 = HDAC2 (Homo sapiens, UniProt Q92769); assay: in vitro biochemical HDAC inhibition assay; details: read-out: IC50 HDAC2
HDAC3 = HDAC3 (Homo sapiens, UniProt O15379); assay: in vitro biochemical HDAC inhibition assay; details: read-out: IC50 HDAC3
HDAC6 = HDAC6 (Homo sapiens, UniProt Q9UBN7); assay: in vitro biochemical HDAC inhibition assay
Gata2 mRNA = assay: induction of Gata2 mRNA in erythroid progenitors by HDAC1,2 inhibitors; format: cell-based, human; details: erythroid progenitors differentiated 3 days with compound; FIG. 2A-C
Source text: Human bone marrow derived CD34+ cells were expanded for 7 days as described by Sankaran et al., Science, vol. 322(5909), pp. 1839-42 (2008). Cells were then differentiated, in the presence of the indicated compound (i.e., Compounds 001, Compound Y, Compound 2005, Compound 2004, Compound 2003), for 3 days in media supporting erythropoiesis (Hu et al., “Isolation and functional characterization of human erythroblasts at distinct stages: implications for understanding of normal and disordered erythropoiesis in vivo”, Blood, vol. 121(16), pp. 3246-53 ([…])). FIG. 2A, FIG. 2B, and FIG. 2C each represents an experimental series performed on different days and with different donor cells.

HDACs 4-9 = assay: in vitro HDAC inhibition assay, HDACs 4-9; format: biochemical; details: concentrations as high as 20 μM; FIG. 20
HbG mRNA = assay: % HbG mRNA induction in 2-phase culture systems CS1 and CS2; format: cell-based, human
Source text: Then, the cells were differentiated by exposure to either vehicle (control) or Compound 001. RNA samples of HbG were taken at days 0, 3, 5, and 8. […] Staining cells with a FITC-conjugated anti-HbF antibody and flow cytometry was used to measure induction of fetal hemoglobin.

[1] = system: human bone marrow-derived CD34+ cells; assay: viability of expanded CD34+ cells; format: cell-based; details: Homo sapiens, 48 h; 2 days of treatment; FIG. 19A
Source text: This possibility was first tested by measuring the viability of expanded human bone marrow-derived CD34+ cells, composed of primitive and more differentiated hematopoietic progenitors of multiple lineages, following 2 days of treatment with compound.

[2] = system: Human CD34+ bone marrow cells; assay: erythroid maturation in CS1 by CD71/GlyA flow cytometry; format: cell-based; details: 1 μM, first 5 days
Source text: To investigate the effects of HDAC inhibition on later stages of erythroid maturation, differentiation in CS1 was followed by flow cytometry using fluorescent antibodies against the transferrin receptor (CD71) and glycophorin A (GlyA). […] The majority of vehicle control cells continued to differentiate, becoming CD71^posGlyA^pos by day 8. […] CD71^posGlyA^mid cells are equivalent to proerythroblasts (ProE), while CD71^posGlyA^pos cells include the more differentiated basophilic and polychromatic erythroblasts.

Chain of HDAC1 (Q13547 whole entry): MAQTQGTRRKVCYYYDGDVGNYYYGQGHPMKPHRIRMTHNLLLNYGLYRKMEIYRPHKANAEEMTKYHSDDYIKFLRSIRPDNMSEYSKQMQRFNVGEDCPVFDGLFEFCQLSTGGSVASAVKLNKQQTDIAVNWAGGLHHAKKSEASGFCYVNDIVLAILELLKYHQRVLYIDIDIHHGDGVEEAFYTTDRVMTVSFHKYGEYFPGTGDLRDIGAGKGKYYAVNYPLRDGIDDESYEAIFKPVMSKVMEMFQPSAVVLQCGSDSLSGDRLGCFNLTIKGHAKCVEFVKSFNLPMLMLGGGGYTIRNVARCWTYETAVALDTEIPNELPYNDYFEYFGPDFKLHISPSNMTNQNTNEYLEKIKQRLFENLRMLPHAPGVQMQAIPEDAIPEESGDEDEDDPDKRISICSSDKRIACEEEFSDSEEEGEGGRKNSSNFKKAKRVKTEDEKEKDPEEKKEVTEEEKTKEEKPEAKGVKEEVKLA
Chain of HDAC3 (O15379 whole entry): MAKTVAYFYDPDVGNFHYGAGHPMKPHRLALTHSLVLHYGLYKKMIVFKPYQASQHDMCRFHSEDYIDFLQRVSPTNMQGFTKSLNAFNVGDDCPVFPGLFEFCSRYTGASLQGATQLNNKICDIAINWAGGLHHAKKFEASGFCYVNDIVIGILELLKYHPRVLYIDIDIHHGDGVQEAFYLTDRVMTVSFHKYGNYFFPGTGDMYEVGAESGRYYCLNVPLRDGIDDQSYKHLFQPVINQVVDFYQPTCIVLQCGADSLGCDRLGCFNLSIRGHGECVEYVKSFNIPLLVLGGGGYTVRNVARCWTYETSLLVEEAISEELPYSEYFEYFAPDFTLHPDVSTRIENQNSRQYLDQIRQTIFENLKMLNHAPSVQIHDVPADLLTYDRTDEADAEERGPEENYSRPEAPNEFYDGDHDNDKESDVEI
Chain of HDAC3 (Q9Y618 395-489 partner limits assumed): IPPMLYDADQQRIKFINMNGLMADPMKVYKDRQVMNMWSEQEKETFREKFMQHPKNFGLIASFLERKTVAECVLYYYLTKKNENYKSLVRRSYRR
Chain of HDAC2 (Q92769 whole entry): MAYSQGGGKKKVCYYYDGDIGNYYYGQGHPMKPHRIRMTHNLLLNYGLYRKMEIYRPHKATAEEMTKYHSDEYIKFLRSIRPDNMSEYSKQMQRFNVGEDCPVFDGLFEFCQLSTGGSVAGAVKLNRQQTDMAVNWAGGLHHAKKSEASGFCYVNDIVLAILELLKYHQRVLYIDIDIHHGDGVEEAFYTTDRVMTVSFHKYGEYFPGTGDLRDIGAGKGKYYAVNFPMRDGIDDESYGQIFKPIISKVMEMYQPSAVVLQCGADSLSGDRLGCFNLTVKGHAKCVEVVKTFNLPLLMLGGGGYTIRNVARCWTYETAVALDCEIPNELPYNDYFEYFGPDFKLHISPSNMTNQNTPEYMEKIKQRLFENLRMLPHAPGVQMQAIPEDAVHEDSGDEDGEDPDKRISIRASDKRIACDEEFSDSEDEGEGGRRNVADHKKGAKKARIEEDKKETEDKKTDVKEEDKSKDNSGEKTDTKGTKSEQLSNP
Chain of HDAC6 (Q9UBN7 whole entry): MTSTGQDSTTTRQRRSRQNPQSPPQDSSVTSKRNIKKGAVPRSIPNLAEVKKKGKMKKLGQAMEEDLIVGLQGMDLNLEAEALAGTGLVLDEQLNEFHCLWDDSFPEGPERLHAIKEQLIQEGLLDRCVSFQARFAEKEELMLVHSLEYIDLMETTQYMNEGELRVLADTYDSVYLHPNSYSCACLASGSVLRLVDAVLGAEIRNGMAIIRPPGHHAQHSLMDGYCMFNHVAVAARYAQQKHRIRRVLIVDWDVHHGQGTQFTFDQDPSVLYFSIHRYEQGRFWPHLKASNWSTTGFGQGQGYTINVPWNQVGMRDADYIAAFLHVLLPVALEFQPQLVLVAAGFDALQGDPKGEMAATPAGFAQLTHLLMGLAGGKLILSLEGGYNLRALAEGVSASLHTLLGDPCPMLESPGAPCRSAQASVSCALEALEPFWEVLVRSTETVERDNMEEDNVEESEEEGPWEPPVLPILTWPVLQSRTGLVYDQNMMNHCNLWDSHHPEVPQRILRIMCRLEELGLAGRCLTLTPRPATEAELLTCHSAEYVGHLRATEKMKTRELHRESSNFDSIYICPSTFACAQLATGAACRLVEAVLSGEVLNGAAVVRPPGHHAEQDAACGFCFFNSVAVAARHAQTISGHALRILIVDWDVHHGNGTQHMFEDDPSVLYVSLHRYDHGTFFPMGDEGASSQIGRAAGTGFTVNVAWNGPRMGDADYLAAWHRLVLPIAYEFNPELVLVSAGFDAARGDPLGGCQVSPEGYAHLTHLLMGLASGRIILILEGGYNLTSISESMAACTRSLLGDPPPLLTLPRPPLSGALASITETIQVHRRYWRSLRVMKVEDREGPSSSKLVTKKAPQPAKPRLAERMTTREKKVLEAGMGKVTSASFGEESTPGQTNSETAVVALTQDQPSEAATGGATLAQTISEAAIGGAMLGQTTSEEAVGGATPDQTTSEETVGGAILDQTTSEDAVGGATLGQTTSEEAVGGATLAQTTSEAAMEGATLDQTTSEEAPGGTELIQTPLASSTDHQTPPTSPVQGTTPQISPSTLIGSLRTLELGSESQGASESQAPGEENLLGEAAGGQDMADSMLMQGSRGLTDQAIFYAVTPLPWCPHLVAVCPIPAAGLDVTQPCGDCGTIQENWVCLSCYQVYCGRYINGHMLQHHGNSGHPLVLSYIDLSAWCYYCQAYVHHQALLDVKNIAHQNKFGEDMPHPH

Compound | IC50 (HDAC1; Table 4) [nM] | IC50 (HDAC2; Table 4) [nM] | IC50 (HDAC3; Table 4) [nM] | Gata2 mRNA (Gata2 mRNA) | other results
Nc1ncn([C@@H]2O[C@H](CO)[C@@H](O)[C@H]2O)c(=O)n1 [Azacitidine, azacitidine, reference compound] |  |  |  |  | GATA2 level (MV4-11 cells): induced GATA2 level
Nc1ccc(-c2cccs2)cc1NC(=O)c1ccc2c(c1)cc(C1CC1)n2CCN1CCOCC1 [Compound 005, N-(2-amino-5-(thiophen-2-yl)phenyl)-2-cyclopropyl-1-(2-morpholinoethyl)-1H-indole-5-carboxamide] |  |  |  |  | GATA2 level (MV4-11 cells): induced GATA2 level
O=C(NO)c1cnc(NC2(c3ccccc3)CCN(C(=O)Nc3ccc(Cl)c(Cl)c3)CC2)nc1 [Compound 1011] |  |  |  |  | IC50 (HDAC1; Table 3): 110 nM; IC50 (HDAC2; Table 3): 177 nM; IC50 (HDAC3; Table 3): 2160 nM; IC50 (HDAC6; read-out: IC50 HDAC6, Table 3): 14 nM
CC(C)[C@@H](C(=O)N1CCC(C)(Nc2ncc(C(=O)NO)cn2)CC1)c1ccccc1 [Compound 1027] |  |  |  |  | IC50 (HDAC1; Table 3): 130 nM; IC50 (HDAC2; Table 3): 103 nM; IC50 (HDAC3; Table 3): 422 nM; IC50 (HDAC6): 12 nM
Nc1ccc(-c2ccccc2)cc1NC(=O)/C=C/c1ccc(N2CCNCC2)c(C2CC2)c1 [Compound 2001] | 27.3 | 32.3 | 218 | induction of Gata2 mRNA | 
Nc1ccc(-c2cccs2)cc1NC(=O)/C=C/c1ccc(N2CCNCC2)c(C2CC2)c1 [Compound 2002] | 14 | 21.9 | 136 | induction of Gata2 mRNA | 
CN1CCN(c2ccc(C(=O)Nc3cc(-c4ccccc4)ccc3N)cc2C2CC2)CC1 [Compound 2003] | 85 | 79.1 | 491 | induction of Gata2 mRNA | 
Nc1ccc(-c2cccs2)cc1NC(=O)c1ccc(N2CCNCC2)cc1C1CC1 [Compound 2004] | 11.2 | 8.9 | 207 | induction of Gata2 mRNA | 
CC1(Nc2ncc(C(=O)Nc3cc(-c4cccs4)ccc3N)cn2)CCN(C(=O)N2CCCC2)CC1 [Compound 2005] | 10.2 | 14.1 | 673 | induction of Gata2 mRNA | 
Nc1ccc(-c2cccs2)cc1NC(=O)c1cnc(NC2CCN(C(=O)N3CCOCC3)CC2)nc1 [Compound 2007] | 14.9 | 55.5 | 284 | induction of Gata2 mRNA | 
CC1(Nc2ncc(C(=O)Nc3cc(-c4cccs4)ccc3N)cn2)CCN(C(=O)N2CCNCC2)CC1 [Compound 2008] | 7.27 | 25.9 | 195 | induction of Gata2 mRNA | 
CC1(Nc2ccc(C(=O)Nc3cc(-c4ccncc4)ccc3N)cc2)CCN(C(=O)N2CCOCC2)CC1 [Compound 2010] | 12 | 16.8 | 511 | induction of Gata2 mRNA | 
Nc1ccc(-c2ccncc2)cc1NC(=O)c1ccc2c(c1)cc(C1CC1)n2CCN1CCOCC1 [Compound Y] |  |  |  | induction of Gata2 mRNA | 
Nc1ccccc1NC(=O)c1ccc(CNC(=O)OCc2cccnc2)cc1 [Entinostat, reference compound] |  |  |  |  | inhibition of HDACs 4-9 (HDACs 4-9): negligible inhibitory activity; also recorded: no inhibition; % HbG (HbG mRNA; 1 μM, increased from 10%): 46%; induction in % HbG (HbG mRNA; differentiation phase, both culture systems, FIG. 10B, 21A-C): dose- and time-dependent induction; IC50 [1]: 3000 nM; erythroid differentiation (CD71/GlyA) [2]: differentiated normally
